What was measured:
[1] = molecular target: T1, HCV polymerase (NS5B) type 1b (Hepatitis C virus genotype 1b, UniProt P26663); assay: Assay of enzyme (HCV polymerase) inhibitory activity, type 1b enzyme; type: biochemical, HCV BK strain (type 1b)
T1 construct: a region encoding NS5B (J Virol 1991 March, 65(3), 1105-13, 544 amino acids after deletion of 47 amino acids on the C-terminal); 6xHis (C); made in house; host or cells: Escherichia coli
Summary of the method: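 Rxn: NS5B 1b (BK, ΔC47, His6) 0.5 μg/ml; substrate RNA 5 μg/ml; ATP/GTP/CTP 50 μM, UTP 2 μM + [5,6-3H]UTP; 20 mM Tris pH 7.5, 5 mM MgCl2, 50 mM NaCl, 1 mM EDTA/DTT. 25 °C, 60 min. Stop with TCA/pyrophosphate, filter, scintillation count; IC50 vs. untreated.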

[2] = molecular target: T2, HCV polymerase (NS5B) type 1a (Hepatitis C virus genotype 1a, UniProt P26664); assay: Assay of enzyme (HCV polymerase) inhibitory activity, type 1a enzyme; type: biochemical, HCV type 1a (cloned from the blood of patients)
T2 construct: made in house; host or cells: Escherichia coli (by the 'similar method' of the 1b enzyme)
Summary of the method: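 NS5B Δ47 C-term His6 (type 1a, 1.5 μg/ml); substrate RNA 5 μg/ml; ATP/GTP/CTP 50 μM, UTP 2 μM + [5,6-3H]UTP; Tris pH 7.5, MgCl2 5 mM; 25° C, 60 min. TCA/pyrophosphate stop, GF/B filter, scintillation. IC50 vs no-compound control.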

[3] = HCV polymerase inhibitory activity (IC50), 1b, type 1b enzyme 0.5 μg/ml, 25° C., 60 min
[4] = HCV polymerase inhibitory activity (IC50), 1a, type 1a enzyme 1.5 μg/ml, 25° C., 60 min
[5] = HCV polymerase inhibitory activity IC50, 1b, type 1b enzyme
[6] = HCV polymerase inhibitory activity IC50, 1a, type 1a enzyme

Structure (SMILES) | IC50 [1, 3] [nM] | IC50 [2, 4] [nM] | IC50 [1, 5] [nM] | IC50 [2, 6] [nM]
CCc1ccc(CNC(=O)[C@H]2CN(C(C)=O)CCN2S(=O)(=O)c2ccc(C(C)C)cc2)c(C)c1 [Example 321, (R)-4-acetyl-1-(4-isopropyl-benzenesulfonyl)-piperazine-2-carboxylic acid 4-ethyl-2-methyl-benzylamide] | < 100 | < 100 |  | 
CNC(=O)c1nncc2sc(N3CCN(S(=O)(=O)c4ccc(OC(F)(F)F)cc4)[C@@H](C(=O)NCc4ccc(OC(F)(F)F)cc4)C3)nc12 [Example 916, 2-[(R)-4-(4-trifluoromethoxy-benzenesulfonyl)-3-(4-trifluoromethoxy-benzylcarbamoyl)-piperazin-1-yl]-thiazolo[4,5-d]pyridazine-4-carboxylic acid methylamide] |  |  | < 100 | < 100
O=C(NCc1cc2ccccn2c1)[C@H]1CN(c2nc3ncncc3s2)CCN1S(=O)(=O)c1ccc(OC(F)(F)F)cc1 [Example 989, (R)-4-thiazolo[4,5-d]pyrimidin-2-yl-1-(4-trifluoromethoxy-benzenesulfonyl)-piperazine-2-carboxylic acid (indolizin-2-ylmethyl)-amide] |  |  | < 100 | < 100
CCC(F)(F)c1ccc(CNC(=O)[C@H]2CN(C(=O)c3cc(C)on3)CCN2S(=O)(=O)c2ccc(OC(F)(F)F)cc2)cc1 [Example 521, (R)-4-(5-methyl-isoxazole-3-carbonyl)-1-(4-trifluoromethoxy-benzenesulfonyl)-piperazine-2-carboxylic acid 4-(1,1-difluoro-propyl)-benzylamide] | 100 to 1000 | > 1000 |  | 
CCC(F)(F)c1ccc(CNC(=O)[C@H]2CN(c3nc4nc(C)nc(Cl)c4s3)CCN2S(=O)(=O)c2ccc(C(F)(F)F)cc2)cc1 [Example 934, (R)-4-(7-chloro-5-methyl-thiazolo[4,5-d]pyrimidin-2-yl)-1-(4-trifluoromethyl-benzenesulfonyl)-piperazine-2-carboxylic acid 4-(1,1-difluoro-propyl)-benzylamide] |  |  | < 100 | < 100
COC(=O)CCc1ccc(S(=O)(=O)N2CCN(C(C)=O)CC2C(=O)NCc2ccc(C(F)(F)F)cc2)cc1 (centres unmarked) [Example 166, 3-{4-[4-acetyl-2-(4-trifluoromethyl-benzylcarbamoyl)-piperazine-1-sulfonyl]-phenyl}-propionic acid methyl ester] | > 1000 | > 1000 |  | 
CN(C)c1ccc(CNC(=O)C2CN(C(=O)CNC(=O)OC(C)(C)C)CCN2S(=O)(=O)c2ccc(I)cc2)cc1 (centres unmarked) [Example 86, {2-[3-(4-dimethylamino-benzylcarbamoyl)-4-(4-iodo-benzenesulfonyl)-piperazin-1-yl]-2-oxo-ethyl}-carbamic acid tert-butyl ester] | > 1000 | > 1000 |  | 
CC(=O)N1CCN(S(=O)(=O)c2ccc(C(C)C)cc2)C(C(=O)NCc2ccc(Cl)c(Cl)c2)C1 (centres unmarked) [Example 100, 4-acetyl-1-(4-isopropyl-benzenesulfonyl)-piperazine-2-carboxylic acid 3,4-dichloro-benzylamide] | > 1000 | > 1000 |  | 
CC(C)c1ccc(CNC(=O)[C@H]2CN(C(=O)Cc3cccnc3)CCN2S(=O)(=O)c2ccc(C(F)(F)F)cc2)cc1 [Example 175, (R)-4-(2-pyridin-3-yl-acetyl)-1-(4-trifluoromethyl-benzenesulfonyl)-piperazine-2-carboxylic acid 4-isopropyl-benzylamide] | 100 to 1000 | 100 to 1000 |  | 
CCCc1ccc(CNC(=O)[C@H]2CN(c3nc(C)c(C(=O)O)s3)CCN2S(=O)(=O)c2ccc(C(F)(F)F)cc2)cc1 [Example 339, 4-methyl-2-[(R)-3-(4-propyl-benzylcarbamoyl)-4-(4-trifluoromethyl-benzenesulfonyl)-piperazin-1-yl]-thiazole-5-carboxylic acid] | < 100 | < 100 |  | 
Cc1nc(N2CCN(S(=O)(=O)c3ccc(OC(F)(F)F)cc3)[C@@H](C(=O)NCc3ccc(C(C)(C)C)cc3)C2)sc1-c1nnn[nH]1 [Example 583, (R)-4-[4-methyl-5-(1H-tetrazol-5-yl)-thiazol-2-yl]-1-(4-trifluoromethoxy-benzenesulfonyl)-piperazine-2-carboxylic acid 4-tert-butyl-benzylamide] | < 100 | < 100 |  | 
CC(C)(C)c1ncc2sc(N3CCN(S(=O)(=O)c4ccc(OC(F)(F)F)cc4)[C@@H](C(=O)NCc4ccc(OC(F)(F)F)cc4)C3)nc2n1 [Example 1024, (R)-4-(5-tert-butyl-thiazolo[4,5-d]pyrimidin-2-yl)-1-(4-trifluoromethoxy-benzenesulfonyl)-piperazine-2-carboxylic acid 4-trifluoromethoxy-benzylamide] |  |  | < 100 | < 100
CCCc1ccc(CNC(=O)[C@H]2CN(c3nc(C(=O)O)c(CO)s3)CCN2S(=O)(=O)c2ccc(OC(F)(F)F)cc2)cc1 [Example 537, 5-hydroxymethyl-2-[(R)-3-(4-propyl-benzylcarbamoyl)-4-(4-trifluoromethoxy-benzenesulfonyl)-piperazin-1-yl]-thiazole-4-carboxylic acid] | < 100 | < 100 |  | 
CCC(F)(F)c1ccc(CNC(=O)[C@H]2CN(C(=O)Nc3ccnc(C(=O)N4CCCC4)c3)CCN2S(=O)(=O)c2ccc(OC(F)(F)F)cc2)cc1 [Example 514, (R)-4-(4-trifluoromethoxy-benzenesulfonyl)-piperazine-1,3-dicarboxylic acid 3-[4-(1,1-difluoro-propyl)-benzylamide] 1-{[2-(pyrrolidine-1-carbonyl)-pyridin-4-yl]-amide}] | < 100 | < 100 |  | 
CCC(F)(F)c1ccc(CNC(=O)[C@H]2CN(c3cnc4ncncc4n3)CCN2S(=O)(=O)c2ccc(OC(F)(F)F)cc2)cc1 [Example 707, (R)-4-pteridin-6-yl-1-(4-trifluoromethoxy-benzenesulfonyl)-piperazine-2-carboxylic acid 4-(1,1-difluoro-propyl)-benzylamide] |  |  | < 100 | < 100
CC(=O)N1CCN(S(=O)(=O)c2ccc(C(C)C)cc2)[C@@H](C(=O)NCc2ccc(CO)cc2)C1 [Example 226, (R)-4-acetyl-1-(4-isopropyl-benzenesulfonyl)-piperazine-2-carboxylic acid 4-hydroxymethyl-benzylamide] | > 1000 | > 1000 |  | 
CCC(F)(F)c1ccc(CNC(=O)[C@H]2CN(c3nc4c(=O)[nH]ncc4s3)CCN2S(=O)(=O)c2ccc(OC(F)(F)F)cc2)cc1 [Example 664, (R)-4-(4-oxo-4,5-dihydro-thiazolo[4,5-d]pyridazin-2-yl)-1-(4-trifluoromethoxy-benzenesulfonyl)-piperazine-2-carboxylic acid 4-(1,1-difluoro-propyl)-benzylamide] |  |  | < 100 | < 100
CCCc1ccc(CNC(=O)[C@H]2CN(c3cnc4cncc(C(=O)O)c4n3)CCN2S(=O)(=O)c2ccc([N+](=O)[O-])cc2)cc1 [Example 843, 2-[(R)-4-(4-nitro-benzenesulfonyl)-3-(4-propyl-benzylcarbamoyl)-piperazin-1-yl]-pyrido[3,4-b]pyrazine-8-carboxylic acid] |  |  | < 100 | < 100
O=C(NCc1ccc(OC(F)(F)F)cc1)[C@H]1CN(c2nc3c(=O)[nH][nH]c(=O)c3s2)CCN1S(=O)(=O)c1ccc(OC(F)(F)F)cc1 [Example 803, (R)-4-(4,7-dioxo-4,5,6,7-tetrahydro-thiazolo[4,5-d]pyridazin-2-yl)-1-(4-trifluoromethoxy-benzenesulfonyl)-piperazine-2-carboxylic acid 4-trifluoromethoxy-benzylamide] |  |  | < 100 | < 100
CCC(F)(F)c1ccc(CNC(=O)[C@H]2CN(C(=O)Nc3nnc(CO)s3)CCN2S(=O)(=O)c2ccc(OC(F)(F)F)cc2)cc1 [Example 482, (R)-4-(4-trifluoromethoxy-benzenesulfonyl)-piperazine-1,3-dicarboxylic acid 3-[4-(1,1-difluoro-propyl)-benzylamide] 1-[(5-hydroxymethyl-[1,3,4]thiadiazol-2-yl)-amide]] | < 100 | 100 to 1000 |  | 
CC(=O)N1CCN(S(=O)(=O)c2ccc(OC(F)(F)F)cc2)[C@@H](C(=O)NCc2ccc(C(C)C)cc2)C1 [Example 207, (R)-4-acetyl-1-(4-trifluoromethoxy-benzenesulfonyl)-piperazine-2-carboxylic acid 4-isopropyl-benzylamide] | < 100 | < 100 |  | 
Nc1nc(Cl)nc2nc(N3CCN(S(=O)(=O)c4ccc(OC(F)(F)F)cc4)[C@@H](C(=O)NCc4ccc(OC(F)(F)F)cc4)C3)sc12 [Example 962, (R)-4-(7-amino-5-chloro-thiazolo[4,5-d]pyrimidin-2-yl)-1-(4-trifluoromethoxy-benzenesulfonyl)-piperazine-2-carboxylic acid 4-trifluoromethoxy-benzylamide] |  |  | < 100 | < 100

From patent US8017612B2, “Piperazine compound and use thereof as a HCV polymerase inhibitor” (priority 2006, dated 2011)
